Source: the NIST ThermoML archive (doi:10.1016/j.jct.2014.11.001)
“And” between values parts separate entries of the source, which are not always exact repeats. Equal entries are not always repeated.

What was measured:
[1] = Molar enthalpy of transition or fusion; details: Crystal; DSC
[2] = for Normal melting temperature: DTA

CNC(=O)c1cccnc1 [N-methylnicotinamide]
Details	Molar enthalpy of transition or fusion [kJ/mol]
[1]	22

[2]
Details	vapor or sublimation pressure
329.17 K, Crystal, Calculated from knudsen effusion weight loss	0.000104 kPa and 0.000105 kPa
331.27 K, Crystal, Calculated from knudsen effusion weight loss	0.000132 kPa and 0.000134 kPa and 0.000131 kPa
333.15 K, Crystal, Calculated from knudsen effusion weight loss	0.000162 kPa and 0.00016 kPa and 0.000164 kPa
335.17 K, Crystal, Calculated from knudsen effusion weight loss	0.000211 kPa and 0.000209 kPa and 0.000206 kPa
337.27 K, Crystal, Calculated from knudsen effusion weight loss	0.000261 kPa and 0.000259 kPa
339.15 K, Crystal, Calculated from knudsen effusion weight loss	0.000328 kPa and 0.00032 kPa
341.16 K, Crystal, Calculated from knudsen effusion weight loss	0.000414 kPa and 0.000404 kPa
343.27 K, Crystal, Calculated from knudsen effusion weight loss	0.00051 kPa and 0.000505 kPa and 0.000513 kPa
345.13 K, Crystal, Calculated from knudsen effusion weight loss	0.000619 kPa and 0.000613 kPa and 0.000627 kPa
347.16 K, Crystal, Calculated from knudsen effusion weight loss	0.000784 kPa and 0.000776 kPa and 0.000771 kPa
347.78 K, Crystal, Closed cell (Static) method	0.00085 kPa
349.27 K, Crystal, Calculated from knudsen effusion weight loss	0.000971 kPa and 0.000964 kPa and 0.000957 kPa
349.78 K, Crystal, Closed cell (Static) method	0.00105 kPa
351.69 K, Crystal, Closed cell (Static) method	0.00127 kPa
353.72 K, Crystal, Closed cell (Static) method	0.00157 kPa
355.6 K, Crystal, Closed cell (Static) method	0.00191 kPa
357.66 K, Crystal, Closed cell (Static) method	0.00232 kPa
359.51 K, Crystal, Closed cell (Static) method	0.0028 kPa
361.62 K, Crystal, Closed cell (Static) method	0.00347 kPa
363.5 K, Crystal, Closed cell (Static) method	0.00416 kPa
365.47 K, Crystal, Closed cell (Static) method	0.00502 kPa
367.44 K, Crystal, Closed cell (Static) method	0.00604 kPa
369.43 K, Crystal, Closed cell (Static) method	0.00721 kPa
371.36 K, Crystal, Closed cell (Static) method	0.00857 kPa
373.27 K, Crystal, Closed cell (Static) method	0.01023 kPa
375.33 K, Metastable liquid, Closed cell (Static) method	0.01316 kPa
375.36 K, Crystal, Closed cell (Static) method	0.01234 kPa
377.25 K, Metastable liquid, Closed cell (Static) method	0.01508 kPa
377.39 K, Crystal, Closed cell (Static) method	0.01496 kPa
379.31 K, Metastable liquid, Closed cell (Static) method	0.01731 kPa
381.26 K, Closed cell (Static) method, Liquid	0.01991 kPa
383.29 K, Closed cell (Static) method, Liquid	0.0228 kPa
385.21 K, Closed cell (Static) method, Liquid	0.02592 kPa
387.24 K, Closed cell (Static) method, Liquid	0.02975 kPa
389.16 K, Closed cell (Static) method, Liquid	0.03359 kPa
391.17 K, Closed cell (Static) method, Liquid	0.03824 kPa
393.09 K, Closed cell (Static) method, Liquid	0.04305 kPa
395.12 K, Closed cell (Static) method, Liquid	0.04915 kPa
397.12 K, Closed cell (Static) method, Liquid	0.05526 kPa
399.02 K, Closed cell (Static) method, Liquid	0.06212 kPa
401.07 K, Closed cell (Static) method, Liquid	0.07023 kPa
403.01 K, Closed cell (Static) method, Liquid	0.07943 kPa
404.99 K, Closed cell (Static) method, Liquid	0.08886 kPa
406.95 K, Closed cell (Static) method, Liquid	0.09977 kPa
408.92 K, Closed cell (Static) method, Liquid	0.1117 kPa
410.86 K, Closed cell (Static) method, Liquid	0.1253 kPa
412.85 K, Closed cell (Static) method, Liquid	0.1398 kPa
414.81 K, Closed cell (Static) method, Liquid	0.1564 kPa
416.77 K, Closed cell (Static) method, Liquid	0.1735 kPa
418.72 K, Closed cell (Static) method, Liquid	0.194 kPa
420.68 K, Closed cell (Static) method, Liquid	0.2147 kPa
422.64 K, Closed cell (Static) method, Liquid	0.2384 kPa
424.61 K, Closed cell (Static) method, Liquid	0.2644 kPa
426.55 K, Closed cell (Static) method, Liquid	0.2952 kPa

Details	Normal melting temperature [°C]
[2], Crystal	106.0

CN(C)C(=O)c1cccnc1 [N,N-dimethylnicotinamide]
Details	Molar enthalpy of transition or fusion [kJ/mol]
[1]	19.4

[2]
Details	vapor or sublimation pressure [kPa]
307.16 K, Metastable liquid, Closed cell (Static) method	0.00057
308.18 K, Crystal, Closed cell (Static) method	0.00049
309.14 K, Metastable liquid, Closed cell (Static) method	0.00069
309.15 K, Crystal, Closed cell (Static) method	0.00056
310.13 K, Crystal, Closed cell (Static) method	0.00062
311.15 K, Crystal, Closed cell (Static) method	0.0007
311.16 K, Metastable liquid, Closed cell (Static) method	0.00082
312.13 K, Crystal, Closed cell (Static) method	0.00078
313.1 K, Crystal, Closed cell (Static) method	0.00088
313.1 K, Metastable liquid, Closed cell (Static) method	0.00099
314.09 K, Crystal, Closed cell (Static) method	0.00098
315.07 K, Metastable liquid, Closed cell (Static) method	0.00118
315.1 K, Crystal, Closed cell (Static) method	0.0011
317.09 K, Metastable liquid, Closed cell (Static) method	0.00142
319.04 K, Closed cell (Static) method, Liquid	0.00169
321.01 K, Closed cell (Static) method, Liquid	0.002
322.97 K, Closed cell (Static) method, Liquid	0.00238
324.98 K, Closed cell (Static) method, Liquid	0.0028
326.94 K, Closed cell (Static) method, Liquid	0.00334
328.93 K, Closed cell (Static) method, Liquid	0.00388
330.88 K, Closed cell (Static) method, Liquid	0.00459
332.9 K, Closed cell (Static) method, Liquid	0.00538
334.96 K, Closed cell (Static) method, Liquid	0.00637
336.93 K, Closed cell (Static) method, Liquid	0.00748
338.92 K, Closed cell (Static) method, Liquid	0.00861
340.89 K, Closed cell (Static) method, Liquid	0.01
342.87 K, Closed cell (Static) method, Liquid	0.01163
344.83 K, Closed cell (Static) method, Liquid	0.0135
346.82 K, Closed cell (Static) method, Liquid	0.01555
348.79 K, Closed cell (Static) method, Liquid	0.0179
350.77 K, Closed cell (Static) method, Liquid	0.02072
352.74 K, Closed cell (Static) method, Liquid	0.02375
354.72 K, Closed cell (Static) method, Liquid	0.02718
356.68 K, Closed cell (Static) method, Liquid	0.03111
358.66 K, Closed cell (Static) method, Liquid	0.03534
360.66 K, Closed cell (Static) method, Liquid	0.04054
362.63 K, Closed cell (Static) method, Liquid	0.04582
364.61 K, Closed cell (Static) method, Liquid	0.05247
366.58 K, Closed cell (Static) method, Liquid	0.05911
368.55 K, Closed cell (Static) method, Liquid	0.06722
370.52 K, Closed cell (Static) method, Liquid	0.07569

Details	Normal melting temperature [°C]
[2], Crystal	44.2
